From US8742117B2, “Oxime derivatives” (Cadila Healthcare Limited, priority 2008, dated 2014)

What was measured:
human GPR 119 receptor = molecular target: T1, human GPR 119 receptor (Homo sapiens, UniProt Q8TDV5); test: cAMP assay in stable cell line expressing recombinant human GPR 119 receptor; assay type: cell-based; details: intracellular cAMP, recombinant human GPR 119 cell line
T1 construct: expressed in transfected cells
T1 sequence (Q8TDV5 1-335): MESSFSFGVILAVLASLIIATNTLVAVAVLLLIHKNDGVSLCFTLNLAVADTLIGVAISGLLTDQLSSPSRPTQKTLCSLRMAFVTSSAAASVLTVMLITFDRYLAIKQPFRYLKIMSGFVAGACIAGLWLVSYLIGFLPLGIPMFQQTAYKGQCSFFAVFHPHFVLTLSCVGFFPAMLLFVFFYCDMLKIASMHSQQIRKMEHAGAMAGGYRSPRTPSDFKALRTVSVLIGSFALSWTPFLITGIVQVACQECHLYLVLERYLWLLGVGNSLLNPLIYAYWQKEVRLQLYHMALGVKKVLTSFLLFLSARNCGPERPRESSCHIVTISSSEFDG
From the text: A stable cell line expressing recombinant human GPR 119 receptor was established and used to investigate the efficacy of the compounds of the invention based on the intracellular levels of cyclic AMP (cAMP) using commercially available cAMP kits. Compounds of the invention produced a concentration dependent increase in cAMP level and EC50 values of representative compounds were provided in table 1 and table 2 respectively.

Sprague Dawley rats = test: Feed intake in Sprague Dawley rats; assay type: in vivo, rat; details: 25 mg/kg i.p., cumulative feed intake vs vehicle control
From the text: In Vivo Efficacy Studies: Feed Intake in Sprague Dawley Rats:
Sprague Dawley rats of 6-8 week age were be used for this experiment they were be kept for acclimatization in reversed light/dark cycle for 15 days. Animals will have free access to a standard chow diet and water during acclimatization period. After 15 days reversed light/dark cycle acclimatization animals were trained for fasting induced feed intake for 5 days till they show consistent feed intake. Grouping was done based on the monitored feed intake the training days. On treatment day each group of animals were dosed with test compound or vehicle by appropriate routes of administration (orally or intraperitoneally). Exactly 30 min. after treatment, measured amount of standard chow diet was provided and recorded as 0-min feed offered. Then subsequently 2, 4, 6 and 24 hour after 0-min, feed intake was measured and the cumulative feed intakes were calculated. The change in cumulative feed intake as compare to vehicle treated control at each time point was calculated for test compound and results were provided in table 2

Structure (SMILES) | % activity at 1 μM (human GPR 119 receptor) [%] | further results
CC(=NOc1ncnc(N2CCC(c3nc(C(C)C)no3)CC2)c1[N+](=O)[O-])c1cc2ccccc2o1 [Example 1, 1-(benzofuran-2-yl)ethanone O-6-(4-(3-isopropyl-1,2,4-oxadiazol-5-yl)piperidin-1-yl)-5-nitropyrimidin-4-yl oxime] | 62.46 | EC50 (human GPR 119 receptor): 802 nM
CC(=NOc1ncnc(N2CCC(c3nc(C(C)C)no3)CC2)c1[N+](=O)[O-])c1ccc(C)cc1 [Example 2, 1-p-tolylethanone O-6-(4-(3-isopropyl-1,2,4-oxadiazol-5-yl)piperidin-1-yl)-5-nitropyrimidin-4-yl oxime] | 37.75 | 
CC(=NOc1ncnc(N2CCC(c3nc(C(C)C)no3)CC2)c1C)c1ccc(S(C)(=O)=O)cc1 [Example 3, 1-(4-(methylsulfonyl)phenyl)ethanone O-6-(4-(3-isopropyl-1,2,4-oxadiazol-5-yl)piperidin-1-yl)-5-methylpyrimidin-4-yl oxime] | 73.40 | 
CC(=NOc1ncnc(N2CCC(c3nc(C(C)C)no3)CC2)c1[N+](=O)[O-])c1ccc2c(c1)OCO2 [Example 4, 1-(benzo[d][1,3]dioxol-5-yl)ethanone O-6-(4-(3-isopropyl-1,2,4-oxadiazol-5-yl)piperidin-1-yl)-5-nitropyrimidin-4-yl oxime] | 47.28 | % reduction in food in take 2 hour (Sprague Dawley rats): 45.3%; % reduction in food in take 4 hour (Sprague Dawley rats): 29%; % reduction in food in take 6 hour (Sprague Dawley rats): 14.1%; % reduction in food in take 24 hour (Sprague Dawley rats): 0%
CC(=NOc1ncnc(N2CCC(c3nc(C(C)C)no3)CC2)c1C)c1ccc2c(c1)OCO2 [Example 5, 1-(benzo[d][1,3]dioxol-5-yl)ethanone O-6-(4-(3-isopropyl-1,2,4-oxadiazol-5-yl)piperidin-1-yl)-5-methylpyrimidin-4-yl oxime] | 58.37 | % reduction in food in take 2 hour (Sprague Dawley rats): 39%; % reduction in food in take 4 hour (Sprague Dawley rats): 40%; % reduction in food in take 6 hour (Sprague Dawley rats): 31%; % reduction in food in take 24 hour (Sprague Dawley rats): 8.2%
COc1ccc(C(C)=NOc2ncnc(N3CCC(c4nc(C(C)C)no4)CC3)c2[N+](=O)[O-])cc1 [Example 7, 1-(4-methoxyphenyl)ethanone O-6-(4-(3-isopropyl-1,2,4-oxadiazol-5-yl)piperidin-1-yl)-5-nitropyrimidin-4-yl oxime] | 88.99 | % reduction in food in take 2 hour (Sprague Dawley rats): 53.5%; % reduction in food in take 4 hour (Sprague Dawley rats): 42%; % reduction in food in take 6 hour (Sprague Dawley rats): 36%; % reduction in food in take 24 hour (Sprague Dawley rats): 12.9%
CC(=NOc1ncnc(N2CCC(c3nc(C(C)C)no3)CC2)c1C)c1ccc(F)cc1 [Example 8, 1-(4-fluorophenyl)ethanone O-6-(4-(3-isopropyl-1,2,4-oxadiazol-5-yl)piperidin-1-yl)-5-methylpyrimidin-4-yl oxime] | 64.11 | % reduction in food in take 2 hour (Sprague Dawley rats): 32%; % reduction in food in take 4 hour (Sprague Dawley rats): 17%; % reduction in food in take 6 hour (Sprague Dawley rats): 12%; % reduction in food in take 24 hour (Sprague Dawley rats): 4%
CC(=NOc1ncnc(N2CCC(c3nc(C(C)C)no3)CC2)c1[N+](=O)[O-])c1ccc(F)cc1 [Example 9, 1-(4-fluorophenyl)ethanone O-6-(4-(3-isopropyl-1,2,4-oxadiazol-5-yl)piperidin-1-yl)-5-nitropyrimidin-4-yl oxime] | 104.77 | EC50 (human GPR 119 receptor): 746 nM; % reduction in food in take 2 hour (Sprague Dawley rats): 41%; % reduction in food in take 4 hour (Sprague Dawley rats): 31%; % reduction in food in take 6 hour (Sprague Dawley rats): 23%; % reduction in food in take 24 hour (Sprague Dawley rats): 12%
CC(=NOc1ncnc(N2CCC(c3nc(C(C)C)no3)CC2)c1C)c1cccnc1 [Example 12, 1-(pyridin-3-yl)ethanone O-6-(4-(3-isopropyl-1,2,4-oxadiazol-5-yl)piperidin-1-yl)-5-methylpyrimidin-4-yl oxime] | 20.32 | 
CC(=NOc1ncnc(N2CCC(c3nc(C(C)C)no3)CC2)c1[N+](=O)[O-])c1ccc(OC(F)(F)F)cc1 [Example 13, 1-(4-(trifluoromethoxy)phenyl)ethanone O-6-(4-(3-isopropyl-1,2,4-oxadiazol-5-yl)piperidin-1-yl)-5-nitropyrimidin-4-yl oxime] | 93.76 | EC50 (human GPR 119 receptor): 242 nM
CC(=NOc1ncnc(N2CCC(c3nc(C(C)C)no3)CC2)c1C)c1ccc2c(c1)CCCC2 [Example 17, 1-(5,6,7,8-tetrahydronaphthalen-2-yl)ethanone O-6-(4-(3-isopropyl-1,2,4-oxadiazol-5-yl)piperidin-1-yl)-5-methylpyrimidin-4-yl oxime] | 29.24 | 
CC(=NOc1ncnc(N2CCC(c3nc(C(C)C)no3)CC2)c1[N+](=O)[O-])c1ccc2c(c1)CCCC2 [Example 18, 1-(5,6,7,8-tetrahydronaphthalen-2-yl)ethanone O-6-(4-(3-isopropyl-1,2,4-oxadiazol-5-yl)piperidin-1-yl)-5-nitropyrimidin-4-yl oxime] | 31.37 | 
CC(=NOc1ncnc(N2CCC(c3nc(C(C)C)no3)CC2)c1C)c1ccc(-c2ccccc2)cc1 [Example 24, 1-(biphenyl-4-yl)ethanone O-6-(4-(3-isopropyl-1,2,4-oxadiazol-5-yl)piperidin-1-yl)-5-methylpyrimidin-4-yl oxime] | 8.7 | 
CC(=NOc1ncnc(N2CCC(c3nc(C(C)C)no3)CC2)c1[N+](=O)[O-])c1ccc(-c2ccccc2)cc1 [Example 25, 1-(biphenyl-4-yl)ethanone O-6-(4-(3-isopropyl-1,2,4-oxadiazol-5-yl)piperidin-1-yl)-5-nitropyrimidin-4-yl oxime] | 32.0 | 

Further lines, with some results ahead:

% activity at 1 μM (human GPR 119 receptor) [%] | Structure (SMILES) | further results
40.68 | CC(=NOc1ncnc(N2CCC(c3nc(C(C)C)no3)CC2)c1C)c1cc2ccccc2o1 [Example 19, 1-(benzofuran-2-yl)ethanone O-6-(4-(3-isopropyl-1,2,4-oxadiazol-5-yl)piperidin-1-yl)-5-methylpyrimidin-4-yl oxime] | 
24.55 | Cc1c(ON=C(c2ccccc2)c2ccccc2)ncnc1N1CCC(c2nc(C(C)C)no2)CC1 [Example 20, Benzophenone O-6-(4-(3-isopropyl-1,2,4-oxadiazol-5-yl)piperidin-1-yl)-5-methylpyrimidin-4-yl oxime] | 
19.43 | CC(C)c1noc(C2CCN(c3ncnc(ON=C(c4ccccc4)c4ccccc4)c3[N+](=O)[O-])CC2)n1 [Example 21, Benzophenone O-6-(4-(3-isopropyl-1,2,4-oxadiazol-5-yl)piperidin-1-yl)-5-nitropyrimidin-4-yl oxime] | 
10.2 | CCCCC(=NOc1ncnc(N2CCC(c3nc(C(C)C)no3)CC2)c1[N+](=O)[O-])c1ccccc1 [Example 26, 1-phenylpentan-1-one O-6-(4-(3-isopropyl-1,2,4-oxadiazol-5-yl)piperidin-1-yl)-5-nitropyrimidin-4-yloxime] | 
33.4 | CC(=NOc1ncnc(N2CCC(c3nc(C(C)C)no3)CC2)c1[N+](=O)[O-])c1cccs1 [Example 28, 1-(thiophen-2-yl)ethanone O-6-(4-(3-isopropyl-1,2,4-oxadiazol-5-yl)piperidin-1-yl)-5-nitropyrimidin-4-yl oxime] | 
13.7 | Cc1c(ON=C(c2ccc(F)cc2)c2ccc(F)cc2)ncnc1N1CCC(c2nc(C(C)C)no2)CC1 [Example 29, bis(4-fluorophenyl)methanone O-6-(4-(3-isopropyl-1,2,4-oxadiazol-5-yl)piperidin-1-yl)-5-methylpyrimidin-4-yl oxime] | 
24.65 | CCCCC(=NOc1ncnc(N2CCC(c3nc(C(C)C)no3)CC2)c1C)c1ccccc1 [Example 30, 1-phenylpentan-1-one O-6-(4-(3-isopropyl-1,2,4-oxadiazol-5-yl)piperidin-1-yl)-5-methylpyrimidin-4-yl oxime] | 
12.18 | CC(C)c1noc(C2CCN(c3ncnc(ON=C(c4ccc(F)cc4)c4ccc(F)cc4)c3[N+](=O)[O-])CC2)n1 [Example 31, bis(4-fluorophenyl)methanone O-6-(4-(3-isopropyl-1,2,4-oxadiazol-5-yl)piperidin-1-yl)-5-nitropyrimidin-4-yl oxime] | 
32.16 | CC(=NOc1ncnc(N2CCC(c3nc(C(C)C)no3)CC2)c1C)c1ccccc1 [Example 32, Acetophenone O-6-(4-(3-isopropyl-1,2,4-oxadiazol-5-yl)piperidin-1-yl)-5-methylpyrimidin-4-yloxime] | 
59.34 | CC(=NOc1ncnc(N2CCC(c3nc(C(C)C)no3)CC2)c1[N+](=O)[O-])c1ccccc1 [Example 33, Acetophenone O-6-(4-(3-isopropyl-1,2,4-oxadiazol-5-yl)piperidin-1-yl)-5-nitropyrimidin-4-yl oxime] | 
